Tested on: enucleated skin of a hairless mouse
Experiment: Drug permeability test by in vitro diffusion cell
Assay type: in vitro ADME
Details: pH 7.2
Protocol: A drug permeability test was conducted for amine oxide, which is the product of the present invention.
Pharmaceutical samples comprising the following composition were prepared.
For an evaluation of the percutaneous absorption promoting effect of a drug with the test substance, a drug permeability test was conducted by in vitro diffusion cell, using the enucleated skin of a hairless mouse. As the diffusion cell device, a vertical film type 2-compartment cell with a diffusion area of 2 cm^2 was employed. The whole skin layer at the back of a 10 to 15 weeks old male hairless mouse was enucleated and mounted on a diffusion cell. In the cell compartment on the medicament sample side, 2 ml of a medicament sample was placed, and 2 ml of a phosphate buffer phisiological saline (pH 7.2) was placed in the cell compartment on the receptor side, and the whole cell maintained at 32° C. in a thermostat tank while gently stirring both phases. After 24 hours, the receptor solution was sampled and the amount of the drug permeated by high performance chromatography to the receptor side quantitated.

Drug permeability [%]	Drug permeability (Table 5-1, hydroquinone 1.0%, test substance 0.1%, ethanol 20%, 24 hours, 32° C.) [%]	Compound
44.0		CCCCCCCCCCCCCCCCCC[N+](C)(C)[O-] [Example 5-1, Dimethylstearylamine oxide]
28.6		CCCCCCCCCCCCCCCCCCCCCC[N+](C)(C)[O-] [Example 5-2, Dimethylbehenylamine oxide]
30.5		CCCCCCCCCCCCCCCCCC[N+]([O-])(CCO)CCO [Example 5-3, Dihyroxyethylstearylamine oxide]
	9.4	CCCCCCCCCCCC[N+](C)(C)[O-] [Example 5-4, Dimethyllaurylamine oxide]
11.8		CCCCCCCCCCCCCC[N+](C)(C)[O-] [Example 5-5, Dimethylmyristylamine oxide]
